These results are taken from patent publication US9446044B2, “DYRK1 inhibitors and uses thereof” (DIAXONHIT, priority 2011, dated 2016).

Read-outs that look alike come from different tables or passages of the source.

One test concerns the target DYRK1A (Homo sapiens (Human), UniProt Q13627). In words: DYRK1A kinase assay (HotSpot, Reaction Biology). The settings on record: purified recombinant kinase, 10 μM ATP, room temperature 120 min. The format is biochemical.
For a further test, the target named is DYRK1B (Homo sapiens (Human), UniProt Q9Y463). As to the kind of experiment: DYRK1B kinase assay (HotSpot, Reaction Biology). The format is biochemical.
Chain of DYRK1B (Q9Y463 whole entry): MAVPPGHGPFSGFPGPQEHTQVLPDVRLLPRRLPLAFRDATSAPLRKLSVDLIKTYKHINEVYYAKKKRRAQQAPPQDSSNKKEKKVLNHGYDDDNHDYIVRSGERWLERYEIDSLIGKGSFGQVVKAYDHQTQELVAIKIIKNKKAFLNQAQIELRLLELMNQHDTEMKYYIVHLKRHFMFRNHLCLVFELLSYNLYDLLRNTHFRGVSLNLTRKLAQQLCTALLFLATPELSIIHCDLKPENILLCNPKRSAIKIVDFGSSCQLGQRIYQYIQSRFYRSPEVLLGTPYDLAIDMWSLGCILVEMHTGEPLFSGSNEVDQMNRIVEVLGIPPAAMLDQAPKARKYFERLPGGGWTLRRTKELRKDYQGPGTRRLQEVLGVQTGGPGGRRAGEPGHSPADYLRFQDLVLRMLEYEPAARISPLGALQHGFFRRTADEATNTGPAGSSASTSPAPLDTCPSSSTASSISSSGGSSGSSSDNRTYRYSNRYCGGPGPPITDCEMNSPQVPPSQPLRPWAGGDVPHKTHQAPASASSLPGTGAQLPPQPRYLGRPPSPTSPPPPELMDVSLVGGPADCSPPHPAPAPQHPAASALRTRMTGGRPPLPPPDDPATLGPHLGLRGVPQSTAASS
Setting [1] is: purified recombinant kinase, 10 μM ATP, room temperature 120 min.

By IC50 is commonly meant the midpoint of a concentration-inhibition curve. Regarding `CN(C)C(=N)c1nc2ccc3ncnc(Nc4ccc(F)c(Cl)c4)c3c2s1` [Compound 7, 9-(3-Chloro-4-fluorophenylamino)-N,N-dimethylthiazolo[5,4-f]quinazoline-2-carboximidamide], the IC50 at DYRK1A fell in the range of 1000 to 10000 nM.
With `CN(C)C(=N)c1nc2ccc3ncnc(Nc4ccc(Br)cc4F)c3c2s1` [Compound 14], at DYRK1A, the IC50 amounted to 147 nM.
`N=C(NCc1ccc(F)cc1)c1nc2ccc3ncnc(Nc4ccc(Br)cc4F)c3c2s1` [Compound 16, 9-(4-Bromo-2-fluorophenylamino)-N-(4-fluorobenzyl)thiazolo[5,4-f]quinazoline-2-carboximidamide]: at DYRK1A, the IC50 was 1000 to 10000 nM.
On to `N=C(NCc1ccncc1)c1nc2ccc3ncnc(Nc4ccc(Br)cc4F)c3c2s1` [Compound 19, 9-(4-Bromo-2-fluorophenylamino)-N-(pyridin-4-ylmethyl)thiazolo[5,4-f]quinazoline-2-carboximidamide], for which the IC50 at DYRK1A lay in the range of 1000 to 10000 nM.
On the same count and under the same terms, with `CCN(CC)CCNC(=N)c1nc2ccc3ncnc(Nc4ccc(OC)cc4)c3c2s1` [Compound 23, N-(2-(Diethylamino)ethyl)-9-(4-methoxyphenylamino)thiazolo[5,4-f]quinazoline-2-carboximidamide] the figure was […]; with `COc1ccc(Nc2ncnc3ccc4nc(C(=N)NCc5ccccc5)sc4c23)cc1` [Compound 25, N-benzyl-9-(4-methoxyphenylamino)thiazolo[5,4-f]quinazoline-2-carboximidamide], […]; with `N=C(NCCN1CCOCC1)c1nc2ccc3ncnc(Nc4ccc5c(c4)OCO5)c3c2s1` [Compound 29, 9-(Benzo[d][1,3]dioxol-5-ylamino)-N-(2-morpholinoethyl)thiazolo[5,4-f]quinazoline-2-carboximidamide], 1000 to 10000 nM.
Still for that read-out and setting: as for `N=C(NCCN1CCCCC1)c1nc2ccc3ncnc(Nc4ccc5c(c4)OCO5)c3c2s1` [Compound 30, 9-(Benzo[d][1,3]dioxol-5-ylamino)-N-(2-(piperidin-1-yl)ethyl)thiazolo[5,4-f]quinazoline-2-carboximidamide], the figure is 1000 to 10000 nM; as for `N=C(NCCN1CCCC1)c1nc2ccc3ncnc(Nc4ccc5c(c4)OCO5)c3c2s1` [Compound 31, 9-(Benzo[d][1,3]dioxol-5-ylamino)-N-(2-(pyrrolidin-1-yl)ethyl)thiazolo[5,4-f]quinazoline-2-carboximidamide], […].
On the same count and under the same terms, as for `CN(C)CCNC(=N)c1nc2ccc3ncnc(Nc4ccc5c(c4)OCO5)c3c2s1` [Compound 33, 9-(Benzo[d][1,3]dioxol-5-ylamino)-N-(2-(dimethylamino)ethyl)thiazolo[5,4-f]quinazoline-2-carboximidamide], the figure is 431 nM; as for `CCN(CC)CCNC(=N)c1nc2ccc3ncnc(Nc4ccc5c(c4)OCO5)c3c2s1` [Compound 34, 9-(Benzo[d][1,3]dioxol-5-ylamino)-N-(2-(diethylamino)ethyl)thiazolo[5,4-f]quinazoline-2-carboximidamide], 1000 to 10000 nM.
`NC(=O)c1nc2ccc3ncnc(Nc4ccc(Br)cc4F)c3c2s1` [Compound 36, 9-(4-Bromo-2-fluorophenylamino)thiazolo[5,4-f]quinazoline-2-carboxamide]: on DYRK1A, the IC50 is 194 nM.
In the case of `COc1ccc(Nc2ncnc3ccc4nc(C5=NCCO5)sc4c23)cc1` [Compound 42, 2-(4,5-dihydrooxazol-2-yl)-N-(4-methoxyphenyl)thiazolo[5,4-f]quinazolin-9-amine], the IC50 at DYRK1B (setting [1]) was found to be 18700 nM.
Turning to `COC(=N)c1nc2ccc3ncnc(Nc4ccc(Br)cc4F)c3c2s1` [Compound 44, Methyl 9-(4-bromo-2-fluorophenylamino)thiazolo[5,4-f]quinazoline-2-carbimidate], the IC50 on DYRK1A worked out at 3.6 nM; against DYRK1B, 6.55 nM.
Turning to `COC(=N)c1nc2ccc3ncnc(Nc4ccc(OC)cc4)c3c2s1` [Compound 45, Methyl 9-(4-methoxyphenylamino)thiazolo[5,4-f]quinazoline-2-carbimidate], the results for the IC50 on DYRK1A and at DYRK1B (setting [1]) were 13.1 nM and 19.2 nM, respectively.
As to `COC(=N)c1nc2ccc3ncnc(Nc4cc(Br)c5c(c4)OCO5)c3c2s1` [Compound 47, Methyl 9-(7-bromobenzo[d][1,3]dioxol-5-ylamino)thiazolo[5,4-f]quinazoline-2-carbimidate], the IC50 at DYRK1A is 2.76 nM; at DYRK1B (setting [1]), 3.66 nM.
Consider `COC(=N)c1nc2ccc3ncnc(Nc4ccc5c(c4)OCO5)c3c2s1` [Compound 48, Methyl 9-(benzo[d][1,3]dioxol-5-ylamino)thiazolo[5,4-f]quinazoline-2-carbimidate], for which the IC50 on DYRK1B (setting [1]) turned out to be 4.2 nM.
Consider `COC(=N)c1nc2ccc3ncnc(Nc4ccc5c(c4)OCCO5)c3c2s1` [Compound 49, Methyl 9-(2,3-dihydrobenzo[b][1,4]dioxin-6-ylamino)thiazolo[5,4-f]quinazoline-2-carbimidate], for which, at DYRK1A, the IC50 is 8 nM.
Turning to `COC(=N)c1nc2ccc3ncnc(Nc4ccc(OC)c(OC)c4)c3c2s1` [Compound 51, Methyl 9-(3,4-dimethoxyphenylamino)thiazolo[5,4-f]quinazoline-2-carbimidate], the IC50 at DYRK1B (setting [1]) came to 161 nM.
As for `COC(=N)c1nc2ccc3ncnc(Nc4ccc(Cl)cc4)c3c2s1` [Compound 56, Methyl 9-(4-chlorophenylamino)thiazolo[5,4-f]quinazoline-2-carbimidate], the results for the concentration for half-maximal inhibition (IC50) on DYRK1A and at DYRK1B (setting [1]) were 1.13 nM and 4.74 nM, respectively.
Regarding `COC(=N)c1nc2ccc3ncnc(Nc4ccc(Cl)c(Cl)c4)c3c2s1` [Compound 57, Methyl 9-(3,4-dichlorophenylamino)thiazolo[5,4-f]quinazoline-2-carbimidate], at DYRK1A, the IC50 is 66.8 nM.
For the compound `C#Cc1cccc(Nc2ncnc3ccc4nc(C(=N)OC)sc4c23)c1` [Compound 58, Methyl 9-(3-ethynylphenylamino)thiazolo[5,4-f]quinazoline-2-carbimidate], the IC50 at DYRK1A was determined as 40.8 nM; at DYRK1B (setting [1]), 46.3 nM.
Take `COC(=N)c1nc2ccc3ncnc(Nc4ccc(O)c([N+](=O)[O-])c4)c3c2s1` [Compound 60, Methyl 9-(4-hydroxy-3-nitrophenylamino)thiazolo[5,4-f]quinazoline-2-carbimidate]: the IC50 came to 4.91 nM on DYRK1A and 5.68 nM on DYRK1B (setting [1]).
In the same order, the values of `COC(=N)c1nc2ccc3ncnc(Nc4cc(OC)c(OC)c(OC)c4)c3c2s1` [Compound 61, Methyl 9-(3,4,5-trimethoxyphenylamino)thiazolo[5,4-f]quinazoline-2-carbimidate] are 436 nM and 486 nM.
On to `COC(=N)c1nc2ccc3ncnc(Nc4ccc(OC)cc4OC)c3c2s1` [Compound 62, Methyl 9-(2,4-dimethoxyphenylamino)thiazolo[5,4-f]quinazoline-2-carbimidate], for which the results for the IC50 on DYRK1A and at DYRK1B (setting [1]) were 9.53 nM and 11.1 nM, respectively.
`COC(=N)c1nc2ccc3ncnc(Nc4cc(OC)cc(OC)c4)c3c2s1` [Compound 63, Methyl 9-(3,5-dimethoxyphenylamino)thiazolo[5,4-f]quinazoline-2-carbimidate]: on DYRK1A, the IC50 was 299 nM.
`COC(=N)c1nc2ccc3ncnc(Nc4ccccc4)c3c2s1` [Compound 64, Methyl 9-(phenylamino)thiazolo[5,4-f]quinazoline-2-carbimidate]: the IC50 came out at 1.81 nM on DYRK1A and 3.48 nM at DYRK1B (setting [1]).
As for `COC(=N)c1nc2ccc3ncnc(Nc4ccc(C)cc4)c3c2s1` [Compound 65, Methyl 9-(p-tolylamino)thiazolo[5,4-f]quinazoline-2-carbimidate], the IC50 on DYRK1A was 0.98 nM; on DYRK1B (setting [1]) it was 2.83 nM.
As to `COC(=N)c1nc2ccc3ncnc(Nc4ccc(F)cc4)c3c2s1` [Compound 66, Methyl 9-(4-fluorophenylamino)thiazolo[5,4-f]quinazoline-2-carbimidate], the IC50 at DYRK1A is 6.06 nM; at DYRK1B (setting [1]), 9.64 nM.
In the case of `COC(=N)c1nc2ccc3ncnc(Nc4cccc(C#N)c4)c3c2s1` [Compound 67, Methyl 9-(3-cyanophenylamino)thiazolo[5,4-f]quinazoline-2-carbimidate], the IC50 on DYRK1A was 42.7 nM; at DYRK1B (setting [1]), 72 nM.
In the same order, the values of `COC(=N)c1nc2ccc3ncnc(Nc4ccc(F)cc4Br)c3c2s1` [Compound 68, Methyl 9-(2-bromo-4-fluorophenylamino)thiazolo[5,4-f]quinazoline-2-carbimidate] are 0.16 nM and 0.24 nM.
In the case of `COC(=N)c1nc2ccc3ncnc(Nc4ccc(C#N)cc4)c3c2s1` [Compound 70, Methyl 9-(4-cyanophenylamino)thiazolo[5,4-f]quinazoline-2-carbimidate], the IC50 on DYRK1A was determined as 3.89 nM; on DYRK1B (setting [1]), 7.69 nM.
For the compound `COC(=N)c1nc2ccc3ncnc(Nc4ccc(Cl)cc4Cl)c3c2s1` [Compound 72, Methyl 9-(2,4-dichlorophenylamino)thiazolo[5,4-f]quinazoline-2-carbimidate], the IC50 at DYRK1A amounted to 0.22 nM; at DYRK1B (setting [1]), 0.28 nM.
On to `COC(=N)c1nc2ccc3ncnc(Nc4ccc(OC)c([N+](=O)[O-])c4)c3c2s1` [Compound 73, Methyl 9-(4-methoxy-3-nitrophenylamino)thiazolo[5,4-f]quinazoline-2-carbimidate], for which the IC50 on DYRK1A came out at 124 nM.
Consider `COC(=N)c1nc2ccc3ncnc(Nc4ccc(C(C)(C)C)cc4)c3c2s1` [Compound 74, Methyl 9-(4-tert-butylphenylamino)thiazolo[5,4-f]quinazoline-2-carbimidate], for which the results for the IC50 at DYRK1A and on DYRK1B (setting [1]) were 39 nM and 93.8 nM, respectively.
With `COC(=N)c1nc2ccc3ncnc(Nc4cccc(Cl)c4)c3c2s1` [Compound 75, Methyl 9-(3-chlorophenylamino)thiazolo[5,4-f]quinazoline-2-carbimidate], the IC50 at DYRK1A is 13.6 nM; at DYRK1B (setting [1]), 18.8 nM.
With `COC(=N)c1nc2ccc3ncnc(Nc4ccc(N(C)C)cc4)c3c2s1` [Compound 76, Methyl 9-(4-(dimethylamino)phenylamino)thiazolo[5,4-f]quinazoline-2-carbimidate], the 50% inhibitory concentration (IC50) on DYRK1A was found to be 35.6 nM; on DYRK1B (setting [1]), 64.3 nM.
On to `COC(=N)c1nc2ccc3ncnc(Nc4ccc(N5CCCC5)cc4)c3c2s1` [Compound 77, Methyl 9-(4-(pyrrolidin-1-yl)phenylamino)thiazolo[5,4-f]quinazoline-2-carbimidate], for which the figures for the half-inhibitory concentration (IC50) on DYRK1A and on DYRK1B (setting [1]) were 54.8 nM and 186 nM, respectively.
